Drawing on patent publication US9580463B2 (BRISTOL-MYERS SQUIBB COMPANY, priority 2013, dated 2017), this text covers EC50 for six compounds.

The test system of test [1] is HCV genotype 1b (Con1) replicon in HUH-7 cells. Nature of the test: HCV replicon luciferase reporter assay, genotype 1b. The following applies: Hepatitis C virus, 72 h, genotype 1b replicon, 3 days incubation. It counts as cell-based. Summed up:
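Twenty-point, threefold compound titrations (0.5% DMSO) were incubated 3 days at 37 °C with 3.0×10^3 HUH-7 cells/well in 4% FCS. The cells stably carried luciferase replicons: genotype 1b Con1 (S1179I) or 1a H77 (NS3 P1496L, NS5A S2204I). Renilla signal was read after 2 h with 7.5 μM EnduRen, and EC50 was taken from a four-parameter logistic fit. Cytotoxicity (CC50) was measured by Cell Titer-Blue, 8 h.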
(In general: Replicon systems follow genome replication, usually without infectious particles.)

In test [2] the test system is HCV genotype 1a (H77 strain) replicon in HUH-7 cells. Nature of the test: HCV replicon luciferase reporter assay, genotype 1a. The format is cell-based. Particulars: Hepatitis C virus, 72 h, genotype 1a replicon, 3 days incubation. An excerpt:
An HCV replicon whole cell system was established as described by Lohmann V, Korner F, Koch J, Herian U, Theilmann L, Bartenschlager R., Science 285(5424):110-3 (1999) and modified to introduce a luciferase reporter, as first described by Krieger et al (Krieger N, Lohmann V, and Bartenschlager R, J. Virol. 75(10):4614-4624 (2001)). CDNA encoding a humanized form of the Renilla luciferase gene and a linker sequence fused directly to the 3′-end of the luciferase gene were introduced into the replicon construct using an Asc1 restriction site located in core, directly upstream of the neomycin marker gene. The adaptive mutation at position 1179 (serine to isoleucine) was also introduced (Blight K J, Kolykhalov, A A, Rice, C M, Science 290(5498):1972-1974). A stable cell line constitutively expressing this HCV replicon construct was generated by first linearizing plasmid DNAs with ScaI. RNA transcripts were synthesized in vitro using the T7 MegaScript transcription kit (Ambion, Austin, Tex.) according to manufacturer's directions. In vitro transcripts of the cDNA were transfected into the human hepatoma cell line, HUH-7. […] Resulting cell lines were characterized for positive and negative strand RNA production and protein production over time.
A stable HCV replicon luciferase reporter cell line representing the genotype 1a H77 strain (Yanagi M, Purcell R H, Emerson S U, et al. Transcripts from a single full-length cDNA clone of hepatitis C virus are infectious when directly transfected into the liver of a chimpanzee. Proc Natl Acad Sci USA 1997; 94(16):8738-8743) was generated as described previously for the genotype 1b (Con1) replicon luciferase cell line. The replicon construct was modified by introducing mutations were introduced into the genes encoding the NS3 helicase domain (proline replaced by leucine at position 1496) and NS5A (serine to isoleucine at position 2204) to improve replication in cell culture.
HCV replicon luciferase assays were developed to monitor the inhibitory effects of compounds described in the disclosure on HCV genotypes 1a and 1b viral replication. HUH-7 cells, constitutively expressing the HCV replicon, were grown in Dulbecco's Modified Eagle Media (DMEM) (Gibco-BRL) containing 10% Fetal calf serum (FCS) (Sigma) and 1 mg/mL G418 (Gibco-BRL). Compounds were serially diluted 3 folds in DMSO for a twenty-point titration and subsequently transferred to sterile 384-well tissue-culture treated plates (Corning cat #3571). The plates were then seeded with 50 μL of cells at a density of 3.0×10^3 cells/well in DMEM containing 4% FCS (final DMSO concentration at 0.5%). After 3 days incubation at 37° C., cells were analyzed for Renilla Luciferase activity using the EnduRen as substrate (Promega cat #E6485). The EnduRen substrate was diluted in DMEM and then added to the plates to a final concentration of 7.5 μM. The plates were incubated for 2 hrs at 37° C. and then read immediately for 30 seconds with Viewlux Imager (PerkinElmer) using a luminescence program. To assess cytotoxicity of compounds, CC50 values were generated by multiplexing the EnduRen-containing plates with Cell Titer-Blue (Promega, cat # G8082). Cell-Titer Blue (3 μL) was added to each well and incubated for 8 hrs at 37° C. The fluorescence signal from each well was read, with an excitation wavelength at 525/10 nm and an emission wavelength of 598/10 nm, using the Viewlux Imager.
The EC50 values for compounds were calculated by using a four-parameter logistic equation: y=A+((B−A)/(1+((C/x)^D))), where A and B denotes minimal and maximal % inhibition, respectively, C is the EC50, D is the hill slope and x represents compound concentration.

Where two headings read alike, the source gives them in different places.

One may read the EC50 as the concentration that produces a half-maximal response. Regarding `COC[C@@H]1CCCC/C=C\[C@@H]2C[C@@]2(C(=O)NS(=O)(=O)C2CC2)NC(=O)[C@@H]2C[C@@H](Oc3nc4cc(OC)ccc4nc3C(F)(F)F)CN2C(=O)[C@H]1NC(=O)OC(C)(C)C` [Compound 1020, tert-butyl ((2R,6S,7R,13aS,14aR,16aS,Z)-14a-((cyclopropylsulfonyl)carbamoyl)-2-((7-methoxy-3-(trifluoromethyl)quinoxalin-2-yl)oxy)-7-(methoxymethyl)-5,16-dioxo-1,2,3,5,6,7,8,9,10,11,13a,14,14a,15,16,16a-hexadecahydrocyclopropa[e]pyrrolo[1,2-a][1,4]diazacyclopentadecin-6-yl)carbamate], the concentration for a half-maximal effect (EC50) in test [1] (read-out: LE_1b (EC50, range)) fell in the range of 0.51 to 1 nM; in test [2] (read-out: LE_1a (EC50, range)), 1.01 to 5 nM.
With `COC[C@@H]1CCCC/C=C\[C@@H]2C[C@@]2(C(=O)NS(=O)(=O)C2CC2)NC(=O)[C@@H]2C[C@@H](Oc3nc4cc(OC)ccc4nc3C(F)(F)F)CN2C(=O)[C@H]1NC(=O)OC(C)(C)C(F)(F)F` [Compound 1021, 1,1,1-trifluoro-2-methylpropan-2-yl ((2R,6S,7R,13aS,14aR,16aS,Z)-14a-((cyclopropylsulfonyl)carbamoyl)-2-((7-methoxy-3-(trifluoromethyl)quinoxalin-2-yl)oxy)-7-(methoxymethyl)-5,16-dioxo-1,2,3,5,6,7,8,9,10,11,13a,14,14a,15,16,16a-hexadecahydrocyclopropa[e]pyrrolo[1,2-a][1,4]diazacyclopentadecin-6-yl)carbamate], the EC50 in test [1] (read-out: LE_1b (EC50, range)) lay within 0.1 to 0.5 nM; in test [2] (read-out: LE_1a (EC50, range)), 1.01 to 5 nM.
`COC[C@@H]1CCCC/C=C\[C@@H]2C[C@@]2(C(=O)NS(=O)(=O)C2CC2)NC(=O)[C@@H]2C[C@@H](Oc3nccc4cc(OC)c(F)cc34)CN2C(=O)[C@H]1NC(=O)OC(C)(C)C` [Compound 1022]: the concentration giving a half-maximal response (EC50) in test [1] (read-out: LE_1b (EC50, range)) was 1.01 to 5 nM; in test [2] (read-out: LE_1a (EC50, range)), 1.01 to 5 nM.
Regarding `COC[C@@H]1CCCC/C=C\[C@@H]2C[C@@]2(C(=O)NS(=O)(=O)C2CC2)NC(=O)[C@@H]2C[C@@H](Oc3nccc4cc(OC)c(F)cc34)CN2C(=O)[C@H]1NC(=O)OC(C)(C)C(F)(F)F` [Compound 1023], the EC50 lay within 0.1 to 0.5 nM in test [1] (read-out: LE_1b (EC50, range)) and 1.01 to 5 nM in test [2] (read-out: LE_1a (EC50, range)).
Turning to `COC[C@@H]1C[C@@H](C)CC/C=C\[C@@H]2C[C@@]2(C(=O)NS(=O)(=O)C2(CF)CC2)NC(=O)[C@@H]2C[C@@H](Oc3nc4cc(OC)ccc4nc3C(C)C)CN2C(=O)[C@H]1NC(=O)OC(C)(C)C` [Compound 1024, tert-butyl ((2R,6S,7R,9S,13aS,14aR,16aS,Z)-14a-(((1-(fluoromethyl)cyclopropyl)sulfonyl)carbamoyl)-2-((3-isopropyl-7-methoxyquinoxalin-2-yl)oxy)-7-(methoxymethyl)-9-methyl-5,16-dioxo-1,2,3,5,6,7,8,9,10,11,13a,14,14a,15,16,16a-hexadecahydrocyclopropa[e]pyrrolo[1,2-a][1,4]diazacyclopentadecin-6-yl)carbamate], the EC50 in test [1] (read-out: LE_1b (EC50, range)) is 5.01 to 35 nM; in test [2] (read-out: LE_1a (EC50, range)), 35 to 620 nM.
For `COC[C@@H]1C[C@H](C)CC/C=C\[C@@H]2C[C@@]2(C(=O)NS(=O)(=O)C2(CF)CC2)NC(=O)[C@@H]2C[C@@H](Oc3nc4cc(OC)ccc4nc3C(C)C)CN2C(=O)[C@H]1NC(=O)OC(C)(C)C` [Compound 1025, tert-butyl ((2R,6S,7R,9R,13aS,14aR,16aS,Z)-14a-(((1-(fluoromethyl)cyclopropyl)sulfonyl)carbamoyl)-2-((3-isopropyl-7-methoxyquinoxalin-2-yl)oxy)-7-(methoxymethyl)-9-methyl-5,16-dioxo-1,2,3,5,6,7,8,9,10,11,13a,14,14a,15,16,16a-hexadecahydrocyclopropa[e]pyrrolo[1,2-a][1,4]diazacyclopentadecin-6-yl)carbamate], the half-maximal effective concentration (EC50) was 1.38 nM in test [1] (read-out: LE_1b (EC50)); 1.01 to 5 nM in test [1] (read-out: LE_1b (EC50, range)); 7.01 nM in test [2] (read-out: LE_1a (EC50)); 5.01 to 35 nM in test [2] (read-out: LE_1a (EC50, range)).
